{
  "source": "patent US9486535B2",
  "about": "“Methods of making and using nanostructures” (REGENTS OF THE UNIVERSITY OF MINNESOTA, priority 2012, dated 2016)",
  "key": {"HPB-MLT cells [1]": {"system": "HPB-MLT cells", "assay": "Flow cytometry binding to CD3+ cells", "type": "cell-based", "conditions": "4° C., 1 hr", "protocol": "1×10^6 HPB-MLT (or Raji) cells were treated with BisMTX-FITC containing CSAN constructs at the required concentrations at 4° C. for 1 hr in PBS buffer (containing 0.05% BSA and 0.1% sodium azide). Cells were centrifuged (400×g, 10 min), washed twice with PBS/BSA/sodium azide buffer before being resuspended in the same buffer. Their fluorescence was analyzed with a FACSCalibur flow cytometer (BD Biosciences). For competition experiments, HPB-MLT cells were incubated with 40 nM UCHT-1 on ice for 10 mins prior to addition BisMTX-FITC CSAN constructs anti-CD3 constructs (100 nM) followed by washing as above. For disassembly experiments HPB-MLT cells were treated with 150 nM CSANs or 3.95 nM UCHT-1 FITC for 1 hour at 37° C. before being washed twice with RPMI media and finally resuspended in media. […] Samples were stored at 4° C. in the dark until analyzed.\n1×10^6 HPB-MLT cells were treated with FITC or BODIPY labeled constructs (1/0.5/0.1 μM) at 4° C. for 1 hr in PBS buffer (containing 0.05% BSA and 0.1% sodium azide). Cells were pelleted (400×g, 10 min), washed twice, and finally resuspended in the supplemented PBS and their fluorescence was analyzed with a FACSCalibur flow cytometer (BD Biosciences). […] After 1 hr incubation cells were washed, resuspended and analyzed by flow cytometry. […]"}, "HPB-MLT cells [2]": {"system": "HPB-MLT cells", "assay": "Fluorescence confocal microscopy of internalization", "type": "cell-based", "conditions": "37° C., 1 hr", "protocol": "BisMTX-FITC (or BisMTX-PG) and the appropriate DHFR fusion protein were mixed (250 nM) and added to 0.5×10^6 HPB-MLT cells at either 4 or 37° C. for 1 hr in RPMI media. Cells were then pelleted by centrifugation (400×g, 5 min). After being washed twice with PBS (phosphate buffered saline) cells were incubated on Poly-Prep slides coated with poly-L-Lysine (Sigma) at 4 or 37° C. for 30 mins. Cells were then fixed with 4% paraformaldehyde solution for 10 mins and washed thrice with PBS. Finally, cells were treated with ProLong Gold Antifade reagent with DAPI (Invitrogen), a cover slip was applied.\nAfter overnight incubation, images were taken within inner sections of the cells by sequential scanning using a fluorescence confocal microscopy using an Olympus FluoView 1000 BX2 Upright Confocal microscope. Resulting images are the compression of 3-5 z-axis slices. For disassembly experiments after the initial one hour incubation cells were washed twice with PBS before being resuspended in media containing 2 mM trimethoprim, 0.5 mM pyrimethamine or DMSO for three hours at 37° C. after which time they were processed as above. […]\n0.5×10^6 HPB-MLT cells were treated with FITC or BODIPY labeled constructs (1 μM) at either 4 or 37° C. for 1 hr in RPMI media. […] After overnight incubation they were imaged by fluorescence confocal microscopy using a Olympus FluoView 1000 BX2 Upright Confocal microscope. […]"}, "DHFR": {"system": "DHFR", "conditions": "cited from earlier work"}, "HPB-MLT cells [3]": {"system": "HPB-MLT cells", "assay": "Cytotoxicity analysis (CellTiter 96 AQueous cell proliferation assay)", "type": "cell-based", "protocol": "2.5×10^4 HPB-MLT cells were mixed with the appropriate concentration of antiCD3 CSANs in a total volume of 90 uL and incubated at 37° C. for one hour. […] Cell viability was determined using CellTiter 96 AQueous Non-Radioactive Cell Proliferation Assay (Promega)."}, "Solubility in water": {"assay": "Solubility in water", "type": "physicochemical"}},
  "note": "Read-outs that look alike come from different tables or passages of the source. {bisMTX} = bis-methotrexate conjugate; {Fluorescein} = fluorescein label",
  "data": [
    {"compound": "5′ Fluorescein-TGTCATATTCCTGGATCC-Bis-MTX 3′ (5' {Fluorescein}, 3' {bisMTX}, sugars by position and backbone not given here; further chemistry not fully specified) [bis-MTX oligo FITC, bis-MTX oligo conjugate labelled with fluorescein]", "values": [
      {"measurement": "cell fluorescence relative to unstained/untreated cells (binding)", "setting": "HPB-MLT cells [1]", "value": "only a small increase in fluorescence"},
      {"measurement": "internalization (confocal)", "setting": "HPB-MLT cells [2]", "value": "no increased cellular fluorescence"}
    ]},
    {"compound": "CN(Cc1cnc2nc(N)nc(N)c2n1)c1ccc(C(=O)N[C@@H](CCC(=O)O)C(=O)O)cc1", "note": "[MTX, methotrexate]", "values": [
      {"measurement": "enhancement of the affinity of MTX for DHFR by NADPH", "setting": "DHFR", "value": "at least 100 fold"},
      {"measurement": "IC50", "setting": "HPB-MLT cells [3]; 72 h, read-out: IC50 (inhibition of cellular proliferation)", "value": 0.6, "unit": "µM"},
      {"measurement": "IC80", "setting": "HPB-MLT cells [3]; 72 h; read-out: IC80 (inhibition of cellular proliferation)", "value": "> 50", "unit": "µM"}
    ]},
    {"compound": "CN(Cc1cnc2nc(N)nc(N)c2n1)c1ccc(C(=O)N[C@@H](CCC(=O)NCCCCCN(CCCCCNC(=O)CC[C@@H](NC(=O)c2ccc(N(C)Cc3cnc4nc(N)nc(N)c4n3)cc2)C(=O)O)CCOCCOCCN)C(=O)O)cc1", "note": "[bis-MTX-NH2]", "values": [
      {"measurement": "solubility in water", "setting": "Solubility in water", "value": "water soluble"}
    ]},
    {"compound": "CN(Cc1cnc2nc(N)nc(N)c2n1)c1ccc(C(=O)N[C@@H](CCC(=O)NCCCCCN(CCCCCNC(=O)CC[C@@H](NC(=O)c2ccc(N(C)Cc3cnc4nc(N)nc(N)c4n3)cc2)C(=O)O)CCOCCOCCNC(=S)Nc2cccc(-c3c4ccc(=O)cc-4oc4cc(O)ccc34)c2C(=O)O)C(=O)O)cc1", "note": "[bisMTX-FITC]", "values": [
      {"measurement": "internalization (confocal)", "setting": "HPB-MLT cells [2]", "value": "no observable internalized fluorescence"}
    ]},
    {"compound": "bis-methotrexate [bisMTX]", "values": [
      {"measurement": "toxicity to HPB-MLT cells", "setting": "HPB-MLT cells [3]", "value": "non-toxic"},
      {"measurement": "IC50", "setting": "HPB-MLT cells [3]; 72 h; read-out: IC50 (inhibition of cellular proliferation)", "value": "> 20", "unit": "µM"}
    ]}
  ]
}
